Results from patent US8748484B2, “Organometallic anti-cancer complexes” (Research Foundation of The City University of New York, priority 2011, dated 2014).

Assays:
Experiment in all cases: Antiproliferative activity, viable cell count (trypan blue) after 96 hours
Format in all cases: cell-based, human
DU145 = conditions: for IC50: DU145, Prostate, 96 hours, 50% growth inhibition vs DMSO
Experimental: (§1) The antiproliferative activity of compounds 1-4 was determined in the seven types of human cancer cell lines K562 (Chronic Myelogenous Leukemia, CML), HT-29 (colon), and HL-60 (Acute Myloid Leukemia, AML), DU-145 (prostate), MCF-7 (breast), and GRANTA-519 (Mantle Cell Leukemia, MCL), and NSCL (non small cell lung carcinoma) and compared with cisplatin.
(§2) Human cancer cells were plated in twelve-well dishes at a cell density of 2.5×10^4 cells/ml/well. The cells were treated, in duplicate, 24 hours later with increasing concentrations of each compound or cisplatin from Sigma (Table 3). The total number of viable cells was determined after 96 hours later by cell counting by hemacytometer and trypan blue staining. The percentage of viable cells remaining was calculated as follows: number of viable cells (compound treated)/number of viable cells (DMSO treated)*100. Compound 1 dose response assay plot (FIG. 3) is the average percent viable cells of the treated compared to the vehicle (DMSO) treated cells. DU-145, MCF-7, HT-29, H460 cells were grown in DMEM and K562, HL-60, Granata-519 cells were grown in RPMI medium both supplemented with 10% FBS (cell Generation) and 1 unit penicillin. Cells were routinely grown and treated at 37° C. under 90% humidity. The IC50 (50% growth inhibition as compared to DMSO treated control) values in micromoles were determined by extrapolation from the dose response curves. Dose response curves were generated by plotting the percentage of cells at each concentration versus concentration tested. Compound 1 was chosen to produce more detailed growth curves based on overall highest activity profile. Similarly, cells were treated at increasing concentrations of cisplatin and detailed growth curves were generated (FIG. 4). Thus the activity of compound 1 was compared to cisplatin.

GRANTA-519 = conditions: for IC50: GRANTA-519, MCL, 96 hours, 50% growth inhibition vs DMSO
Experimental: as §1, §2

H460 = conditions: for IC50: H460, NSCLC, 96 hours, 50% growth inhibition vs DMSO, Compound 4 values above 25 μM are estimates from the plot 1-25 μM
Experimental: as §1, §2

HL-60 = conditions: for IC50: HL-60, AML, 96 hours, 50% growth inhibition vs DMSO
Experimental: as §1, §2

HT-29 = conditions: for IC50: HT-29, Colon, 96 hours, 50% growth inhibition vs DMSO, Compound 4 values above 25 μM are estimates from the plot 1-25 μM
Experimental: as §1, §2

K562 = conditions: for IC50: K562, CML, 96 hours, 50% growth inhibition vs DMSO, Compound 4 values above 25 μM are estimates from the plot 1-25 μM
Experimental: as §1, §2

MCF-7 = conditions: for IC50: MCF-7, Breast, 96 hours, 50% growth inhibition vs DMSO, Compound 4 values above 25 μM are estimates from the plot 1-25 μM
Experimental: as §1, §2

Compound | IC50 (DU145) [nM] | IC50 (GRANTA-519) [nM] | IC50 (H460) [nM] | IC50 (HL-60) [nM] | IC50 (HT-29) [nM] | IC50 (K562) [nM] | IC50 (MCF-7) [nM] | anticancer activity relative to cisplatin (DU145; DU-145, times more potent than cisplatin) | anticancer activity relative to cisplatin (GRANTA-519; GRANTA-519, times more potent than cisplatin) | anticancer activity relative to cisplatin (H460; NSCL (non small cell lung carcinoma)) | anticancer activity relative to cisplatin (HL-60; HL-60, times higher than cisplatin) | anticancer activity relative to cisplatin (HT-29; HT-29, times higher than cisplatin) | anticancer activity relative to cisplatin (K562; K562, times higher than cisplatin) | anticancer activity relative to cisplatin (MCF-7; MCF-7, times more potent than cisplatin)
N.N.[Cl][Pt][Cl] [Cisplatin, reference compound] | 1000 | 250 | 750 | 750 | 3000 | 1500 | 1500 | – | – | – | – | – | – | –
CC1=C2[O][Ru-]3(=[C]=O)(=[C]=O)([O+]=C2C=CO1)[Ru](=[C]=O)(=[C]=O)(=[C]=O)(=[C]=O)[Ru-]31(=[C]=O)(=[C]=O)[O]C2=C(C)OC=CC2=[O+]1 [Cmpd 1, [Ru3(CO)8(C12H10O6)]] | 500 | 75 | 750 | 100 | 500 | 300 | 400 | 2-3 times | 2-3 times | the same as cisplatin | 5-7 times | 5-7 times | 5-7 times | 2-3 times
CC1=C2[O][Ru-]3(=[C]=O)(=[C]=O)([O+]=C2C=CO1)[Ru](=[C]=O)(=[C]=O)(=[C]=O)([P](c1ccccc1)(c1ccccc1)c1ccccc1)[Ru-]31(=[C]=O)(=[C]=O)[O]C2=C(C)OC=CC2=[O+]1 [Cmpd 2, [Ru3(CO)7(C12H10O6)(PPh3)]] | 2500 | – | 5000 | 750 | 5000 | 2500 | 2500 | – | – | – | – | – | – | –
[Ru3(CO)6(C12H10O6)(dppe)] [Cmpd 4] | 10000 | – | – | – | – | – | – | – | – | – | – | – | – | –
[Ru3(CO)6(C12H10O6)(dppm)] [Cmpd 3] | 25000 | – | 70000 | 25000 | > 100000 | 30000 | 75000 | – | – | – | – | – | – | –
